Experimental data published in paper PMC7529893, “Structural basis for substrate recognition and chemical inhibition of oncogenic MAGE ubiquitin ligases” (Nature Communications, 2020).
Entries after “also recorded” stand apart in the source; their conditions may differ.

Columns and labels:
[1] = tested on: MAGE-A11-knockout DAOY cells or those reconstituted with MAGE-A11; experiment: Cell viability, alamarBlue, DAOY cells; assay type: cell-based
Experimental: (§1) To assess cell viability after SJ521054 treatment, 1 × 10^4 cells/ml were treated with SJ521054 (0–40 μM) and incubated for 24 h prior to changing the media and adding alamarBlue (Thermo Fisher Scientific) and incubating for 4 h at 37 °C. Plates were read by measuring the fluorescence with excitation wavelength at 540 nm and emission wavelength at 590 nm on an Enspire plate reader.

MAGE-A3:AMPKα1 = target: T1, MAGE-A3:AMPKα1 (Homo sapiens, UniProt P43357); experiment: Co-IP of MAGE-A3 with AMPKα1 in cell lysate; assay type: binding; details: 100 µM, 24 h
T1 construct: expressed in transfected cells
Experimental: HEK293FT cells were plated in 6 cm^2 plates and transfected 24 h later with Effectene (QIAGEN) according to the manufacturer’s protocol. After 48 h, cells were washed and scraped in cold PBS, spun down, and resuspended in lysis buffer (50 mM Tris pH 7.4, 150 mM NaCl, 1 mM DTT, 0.1% (v/v) Triton X-100, 10 mM N-Ethylmaleimide, and 1X protease inhibitor cocktail (Sigma)). Cell lysates were incubated with appropriate antibodies overnight at 4 °C and then with protein A beads for 2 h at 4 °C. Beads were then washed with lysis buffer three times and eluted with 2X SDS sample buffer.
(§2) For western blotting, samples in SDS sample buffer were resolved on SDS-PAGE gels and then transferred to nitrocellulose membranes prior to blocking in TBST with 5% (w/v) milk powder or 3% (w/v) bovine serum albumin and probing with primary and secondary antibodies (GE Healthcare). Primary antibodies were: anti-Myc (Sigma, #C3956), anti-FLAG (Sigma, #F3165), anti-HUWE1 (Novus Biologicals, #NB 100-652), anti-PCF11 (Bethyl Laboratories, #A303-706A), anti-GAPDH (Cell Signaling Technology, #2118), anti-TRIM28 (Abcam, #ab22553), anti-AMPKα1 (Cell Signaling Technology, #2795), and anti-MMS19 (Proteintech, #16015-1-AP) and Tb-anti-GST (Invitrogen, #PV3551). Secondary antibodies were: Donkey Anti-Rabbit IgG (GE Healthcare, NA934V) and Sheep Anti-Mouse IgG (GE Healthcare, NA931V). […]

[2] = tested on: HEK293FT cells stably expressing FLAG-vector or FLAG-MAGE-A11; experiment: Cell viability, alamarBlue, HEK293FT cells; assay type: cell-based; details: HEK293FT FLAG-MAGE-A11 against FLAG-vector, 24 h; listed as SJ521054
Experimental: as §1

[3] = tested on: PCF11 degradation by MAGE-A11 in HEK293FT cells; experiment: PCF11 degradation by MAGE-A11, immunoblot in HEK293FT cells; assay type: cell-based
Experimental: HEK293FT, HeLa and DAOY cells were grown in DMEM (Gibco) supplemented with 10% (v/v) FBS (Hyclone), 2 mM L-glutamine, 100 units/ml penicillin, 100 units/ml streptomycin, and […] amphotericin B (Invitrogen). HEK293FT and DAOY cells were transfected with either HA-FLAG-vector, FLAG-MAGE-A11 wild-type or SBC mutants using Effectene (QIAGEN) according to the manufacturer’s protocol in 6 cm^2 plates. After 48 h, cells were selected with 1 µg/ml puromycin (Sigma) over 2 weeks.
as §2

Caco-2 cells = experiment: High throughput Caco-2 permeability; assay type: in vitro ADME
Experimental: High throughput Caco-2 permeability was performed in the TranswellR 0.4 µm polycarbonate membrane 96-well system with modified methods. Caco-2 cells were maintained at 37 °C in a humidified incubator with an atmosphere of 5% CO2. The cells were cultured in 75 cm^2 flasks with Dulbecco’s Modified Eagle’s Medium (DMEM) containing 10% (v/v) FBS, 1% (v/v) non-essential amino acids (NEAA), 100 units/ml of penicillin, and 100 µg/ml of streptomycin. The Caco-2 cells were seeded onto inserts at a density of 2 × 10^4 cells/insert separately. The medium in the wells was exchanged each other day, and the trans epithelial electrical resistance (TEER) value was measured using an epithelial voltohm meter (Millipore, Billerica, Massachusetts). […] For transport experiments, each cultured monolayer on the 96-well plate was washed twice with a transport buffer (HBSS containing 25 mM HEPES, pH 7.4). The permeability assay was initiated by the addition of each compound solution (10 µmol/l) into inserts (apical side, A) or receivers (basolateral side, B). The Caco-2 cell monolayers were incubated for 2 h at 37 °C. Fractions were collected from receivers (if apical to basal permeability) or inserts (if basal to apical permeability), and concentrations were assessed by UPLC/MS (Waters; Milford, MA). All compounds were tested in triplicates. The A → B (or B → A) apparent permeability coefficients (Papp) of each compound were calculated using the equation, Papp = dQ/dt × 1/AC0, where dQ/dt equals the flux of a drug across the monolayer, A equals the total insert well surface area, and C0 is the initial concentration of substrate in the donor compartment. The efflux ratio was determined by dividing the Papp in the B-A direction by the Papp in the A-B direction.

T1 sequence (P43357 whole entry): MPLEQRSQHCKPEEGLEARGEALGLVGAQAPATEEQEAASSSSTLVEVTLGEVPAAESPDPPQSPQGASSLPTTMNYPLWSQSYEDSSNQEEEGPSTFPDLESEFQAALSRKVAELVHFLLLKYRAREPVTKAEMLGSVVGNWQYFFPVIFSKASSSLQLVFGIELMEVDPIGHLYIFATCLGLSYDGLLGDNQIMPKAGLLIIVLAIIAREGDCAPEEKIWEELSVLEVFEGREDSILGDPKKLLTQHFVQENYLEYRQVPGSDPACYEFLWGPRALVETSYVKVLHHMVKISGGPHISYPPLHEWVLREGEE

Compound | cell viability ([1]; DAOY cells with MAGE-A11 against vector control, 0–40 μM, 24 h, listed as SJ521054) | cytotoxicity independent of MAGE-A11 ([1]; higher concentrations, both cell lines (DAOY and HEK293)) | interaction of MAGE-A3 with AMPKα1 in cell lysate (MAGE-A3:AMPKα1; listed as SJ521054) | cell viability [2] | PCF11 protein levels / PCF11 degradation ([3]; HEK293FT cells stably expressing FLAG-MAGE-A11, 24 h, listed as SJ521054) | PCF11 protein levels ([3]; HEK293FT vector control cells, 24 h) | interaction of MAGE-A3 with AMPKα1 in cell lysate (MAGE-A3:AMPKα1; listed as SJ1008066) | cell permeability in words (Caco-2 cells)
FC(F)(F)c1ccc2c(NCCCNCc3ccc4[nH]ccc4c3)ccnc2c1 [SJ000521054-02] | reduces viability of MAGE-A11 expressing DAOY cancer cells; also recorded: decreased the viability of MAGE-A11 expressing DAOY and HEK293FT cells to a much greater extent than vector control MAGE-A11-negative cells | shows cytotoxicity to both cell lines | do not disrupt interaction; also recorded: did not disrupt interaction | reduces viability of; also recorded: decreased the viability of MAGE-A11 expressing DAOY and HEK293FT cells to a much greater extent than vector control MAGE-A11-negative cells | blocks PCF11 degradation by MAGE-A11; also recorded: stabilized PCF11 protein levels | had no effect | – | –
c1ccc2c(NCCCNCc3ccc4[nH]ccc4c3)ccnc2c1 [SJ001008066-01] | – | – | – | – | – | – | do not disrupt interaction; also recorded: did not disrupt interaction | cell permeable
